Results published in US6503942B2, “Ethers of O-Desmethyl venlafaxine” (Wyeth, priority 1999, dated 2003).

Molecule CN(C)CC(c1ccc(OCOC(=O)C(C)(C)C)cc1)C1(O)CCCCC1.O=C(O)/C=C\C(=O)O (stereo not shown) [Example 5, {4-[2-(Dimethylamino)-1-(1-hydroxycyclohexyl)ethyl]phenoxy}methyl Pivalate Maleate Salt] has a melting point of 112 to 113 °C.
